Measured values reported in patent US7473688B2, “Indolobenzazepine HCV NS5B inhibitors” (Bristol-Myers Squibb Company, priority 2005, dated 2009).
Read-outs that look alike come from different tables or passages of the source.

How the values were obtained:
HCV NS5B = biological target: T1, HCV NS5B (Hepatitis C virus genotype 1b, UniProt Q9WMX2); test: HCV NS5B RdRp enzyme assay (preincubation protocol); format: biochemical; conditions: Table 1, read-out: IC50*
T1 construct: The protein was expressed with an 18 amino acid C-terminal truncation to enhance the solubility; made in house; host or cells: E. coli BL21 (DE3), pET21a
T1 sequence (Q9WMX2 2420-2992): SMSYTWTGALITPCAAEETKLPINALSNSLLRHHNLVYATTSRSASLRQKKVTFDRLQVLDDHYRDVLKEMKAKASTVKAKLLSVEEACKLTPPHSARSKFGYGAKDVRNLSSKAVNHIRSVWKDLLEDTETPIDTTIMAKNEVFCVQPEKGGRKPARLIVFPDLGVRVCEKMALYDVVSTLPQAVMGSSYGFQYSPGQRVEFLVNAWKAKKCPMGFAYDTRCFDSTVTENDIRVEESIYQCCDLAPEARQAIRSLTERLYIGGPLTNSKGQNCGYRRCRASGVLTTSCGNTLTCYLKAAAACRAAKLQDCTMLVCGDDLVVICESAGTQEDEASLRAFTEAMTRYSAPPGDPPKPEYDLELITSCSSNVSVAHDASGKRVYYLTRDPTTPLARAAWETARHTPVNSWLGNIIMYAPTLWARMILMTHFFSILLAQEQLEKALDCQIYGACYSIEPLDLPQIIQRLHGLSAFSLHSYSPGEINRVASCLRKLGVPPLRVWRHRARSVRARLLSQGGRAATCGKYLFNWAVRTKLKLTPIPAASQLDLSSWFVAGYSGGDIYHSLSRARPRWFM
In short: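 C-terminally truncated (Δ18) genotype 1b NS5B from E. coli, 14 nM, added to compound, then polyA template (0.2 nM), 3H-UTP (0.29 μM) and oligo-dT12 primer precaptured on streptavidin SPA beads. 4 h at 30 °C, pH 7.5, 2% DMSO; SPA readout; IC50 from seven concentrations by logistic fit.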

HCV replicon = HCV replicon FRET assay; format: cell-based; conditions: Hepatitis C virus
Excerpt: FRET Assay Preparation. To perform the HCV FRET screening assay, 96-well cell culture plates were used. The FRET peptide (Anaspec, Inc.) (Taliani et al., Anal. Biochem. 1996, 240, 60-67) contains a fluorescence donor, EDANS, near one end of the peptide and an acceptor, DABCYL, near the other end. The fluorescence of the peptide is quenched by […] resonance energy transfer (RET) between the donor and the acceptor, but as the NS3 protease cleaves the peptide the products are released from RET quenching and the fluorescence of the donor becomes apparent. The assay reagent was made as follows: 5× cell Luciferase cell culture lysis reagent from Promega (#E153A) diluted to 1× with dH2O, NaCl added to 150 mM final, the FRET peptide diluted to 20 uM final from a 2 mM stock.
To prepare plates, HCV replicon cells, with or without a Renilla luciferase reporter gene, were trypsinized and placed into each well of a 96-well plate with titrated test compounds added in columns 3 through 12; columns 1 and 2 contained a control compound (HCV protease inhibitor), and the bottom row contained cells without compound. The plates were then placed in a CO2 incubator at 37° C.
Assays. Subsequent to addition of the test compounds described above (FRET Assay Preparation), at various times the plate was removed and Alamar blue solution (Trek Diagnostics, #00-100) was added per well as a measure of cellular toxicity. After reading in a Cytoflour 4000 instrument (PE Biosystems), plates were rinsed with PBS and then used for FRET assay by the addition of 30 ul of the FRET peptide assay reagent described above (FRET Assay Preparation) per well. The plate was then placed into the Cytoflour 4000 instrument which had been set to 340 excite/490 emission, automatic mode for 20 cycles and the plate read in a kinetic mode. Typically, the signal to noise using an endpoint analysis after the reads was at least three-fold. Alternatively, after Alamar blue reading, plates were rinsed with PBS, 50 ul of DMEM (high glucose) without phenol red was added and plates were then used for luciferase assay using the Promega Dual-Glo Luciferase Assay System.
Compound analysis was determined by quantification of the relative HCV replicon inhibition and the relative cytotoxicity values. To calculate cytoxicity values, the average Alamar Blue fluorescence signals from the control wells were set as 100% non-toxic. The individual signals in each of the compound test wells were then divided by the average control signal and multiplied by 100% to determine […]. To calculate the HCV replicon inhibition values, an average background value was obtained from the two wells containing the highest amount of HCV protease inhibitor at the end of the assay period. These numbers were similar to those obtained from naïve Huh-7 cells.
The background numbers were then subtracted from the average signal obtained from the control wells and this number was used as 100% activity. The individual signals in each of the compound test wells were then divided by the averaged control values after background subtraction and multiplied by 100% to determine percent activity. EC50 values for a protease inhibitor titration were calculated as the concentration which caused a 50% reduction in FRET or luciferase activity. The two numbers generated for the compound plate, percent cytoxicity and percent activity were used to determine compounds of interest for further analysis.

[1] = Table 1, FRET assay, read-out: EC50*

| SMILES | IC50 (HCV NS5B) [nM] | EC50 (HCV replicon; [1]) [nM] | EC50 (HCV replicon) [nM] |
| --- | --- | --- | --- |
| CN(C)S(=O)(=O)NC(=O)c1ccc2c(C3CCCCC3)c3n(c2c1)CC(C(=O)N1CCN(C(=O)c2ccccc2)CC1)=Cc1ccccc1-3 | 10 to 1000 | 70 to 1000 |  |
| C[C@@H]1CN(C(=O)c2ccccc2)CCN1C(=O)C1=Cc2ccccc2-c2c(C3CCCCC3)c3ccc(C(=O)NS(=O)(=O)N(C)C)cc3n2C1 | 10 to 1000 | 70 to 1000 |  |
| CN(C)S(=O)(=O)NC(=O)c1ccc2c(C3CCCCC3)c3n(c2c1)CC(C(=O)N1CCN2C(=O)c4ccccc4C2C1)=Cc1ccccc1-3 (centres unmarked) | 10 to 1000 | 70 to 1000 |  |
| O=C(O)c1ccc2c(C3CCCCC3)c3n(c2c1)CC(C(=O)N1CCN(c2ncccn2)CC1)=Cc1ccccc1-3 | 10 to 1000 | 70 to 1000 |  |
| CN(C)S(=O)(=O)NC(=O)c1ccc2c(C3CCCCC3)c3n(c2c1)CC(C(=O)N1CCN(c2ncccn2)CC1)=Cc1ccccc1-3 | 10 to 1000 | 70 to 1000 |  |
| CN(C)S(=O)(=O)NC(=O)c1ccc2c(C3CCCCC3)c3n(c2c1)CC(C(=O)N1CCN(C(=O)N2CCOCC2)CC1)=Cc1ccccc1-3 | 10 to 1000 | 70 to 1000 |  |
| CN1CCCC(CN(C)C(=O)C2=Cc3ccccc3-c3c(C4CCCCC4)c4ccc(C(=O)N(C)CC5CCCN(C)C5)cc4n3C2)C1 (centres unmarked) | 10 to 1000 | 1000 to 10000 |  |
| CN1CCCC(CN(C)C(=O)C2=Cc3ccccc3-c3c(C4CCCCC4)c4ccc(C(=O)O)cc4n3C2)C1 (centres unmarked) | 10 to 1000 | 70 to 1000 |  |
| CN1CCCC(CN(C)C(=O)C2=Cc3ccccc3-c3c(C4CCCCC4)c4ccc(C(=O)NS(=O)(=O)N(C)C)cc4n3C2)C1 (centres unmarked) | 10 to 1000 | 70 to 1000 |  |
| O=C(Nc1nccs1)C1=Cc2ccccc2-c2c(C3CCCCC3)c3ccc(C(=O)O)cc3n2C1 | 10 to 1000 | 1000 to 10000 |  |
| O=C(O)c1ccc2c(C3CCCCC3)c3n(c2c1)CC(C(=O)N1C2CCC1CC2)=Cc1ccccc1-3 | 10 to 1000 |  | 70 to 1000 |
| CN(C)S(=O)(=O)NC(=O)c1ccc2c(C3CCCCC3)c3n(c2c1)CC(C(=O)N1C2CCC1CC2)=Cc1ccccc1-3 | 10 to 1000 |  | 70 to 1000 |
| COC(=O)c1ccc2c(C3CCCCC3)c3n(c2c1)CC(C(=O)N1CC2(CCN(C)CC2)C1)=Cc1ccccc1-3 | > 1000 | 1000 to 10000 |  |
| CN1CCC2(CC1)CN(C(=O)C1=Cc3ccccc3-c3c(C4CCCCC4)c4ccc(C(=O)O)cc4n3C1)C2 | 10 to 1000 | 70 to 1000 |  |
| CN(C)S(=O)(=O)NC(=O)c1ccc2c(C3CCCCC3)c3n(c2c1)CC(C(=O)Nc1nccs1)=Cc1ccccc1-3 | 10 to 1000 | 70 to 1000 |  |
| CN(C)S(=O)(=O)NC(=O)c1ccc2c(C3CCCCC3)c3n(c2c1)CC(C(=O)N1C[C@@H]2C[C@H]1CN2C(=O)OC(C)(C)C)=Cc1ccccc1-3 | 10 to 1000 | 70 to 1000 |  |
| CN(C)S(=O)(=O)NC(=O)c1ccc2c(C3CCCCC3)c3n(c2c1)CC(C(=O)N1C[C@@H]2C[C@H]1CO2)=Cc1ccccc1-3 | 10 to 1000 | 70 to 1000 |  |
| CCN(C(C)=O)C1CCN(C(=O)C2=Cc3ccccc3-c3c(C4CCCCC4)c4ccc(C(=O)NS(=O)(=O)N(C)C)cc4n3C2)C1 (centres unmarked) | 10 to 1000 | 70 to 1000 |  |
| CN(CCC1OCCO1)C(=O)C1=Cc2ccccc2-c2c(C3CCCCC3)c3ccc(C(=O)NS(=O)(=O)N(C)C)cc3n2C1 | 10 to 1000 | 70 to 1000 |  |
| COC[C@H]1CCCN1C(=O)C1=Cc2ccccc2-c2c(C3CCCCC3)c3ccc(C(=O)NS(=O)(=O)N(C)C)cc3n2C1 | 10 to 1000 | 70 to 1000 |  |
| COCCN(CCOC)C(=O)C1=Cc2ccccc2-c2c(C3CCCCC3)c3ccc(C(=O)NS(=O)(=O)N(C)C)cc3n2C1 | 10 to 1000 | 70 to 1000 |  |
| COCCN(C)C(=O)C1=Cc2ccccc2-c2c(C3CCCCC3)c3ccc(C(=O)NS(=O)(=O)N(C)C)cc3n2C1 | 10 to 1000 | 70 to 1000 |  |
| CN(C)S(=O)(=O)NC(=O)c1ccc2c(C3CCCCC3)c3n(c2c1)CC(C(=O)N1CCC(CNC(=O)c2ccccc2)C1)=Cc1ccccc1-3 (centres unmarked) | 10 to 1000 | 70 to 1000 |  |

| SMILES | IC50 (HCV NS5B) [nM] | EC50 (HCV replicon; [1]) [nM] | EC50 (HCV replicon) [nM] |
| --- | --- | --- | --- |
| CN(C)S(=O)(=O)NC(=O)c1ccc2c(C3CCCCC3)c3n(c2c1)CC(C(=O)NC1CCOCC1)=Cc1ccccc1-3 | 10 to 1000 | 70 to 1000 |  |
| COC(=O)c1ccc2c(C3CCCCC3)c3n(c2c1)CC(NC(=O)N1CCOCC1)Cc1ccccc1-3 (centres unmarked) | > 1000 | > 120 |  |
| O=C(O)c1ccc2c(C3CCCCC3)c3n(c2c1)CC(NC(=O)N1CCOCC1)Cc1ccccc1-3 (centres unmarked) | 10 to 1000 | 70 to 1000 |  |
| COC(=O)c1ccc2c(C3CCCCC3)c3n(c2c1)CC(C(=O)N1CCC(C(N)=O)C1)=Cc1ccccc1-3 (centres unmarked) | > 1000 | 1000 to 10000 |  |
| NC(=O)C1CCN(C(=O)C2=Cc3ccccc3-c3c(C4CCCCC4)c4ccc(C(=O)O)cc4n3C2)C1 (centres unmarked) | 10 to 1000 | 1000 to 10000 |  |
| CN(C)S(=O)(=O)NC(=O)c1ccc2c(C3CCCCC3)c3n(c2c1)CC(C(=O)N1CCC(N2CCOCC2)CC1)=Cc1cc(O)ccc1-3 | 10 to 1000 | 70 to 1000 |  |
| COC(=O)c1ccc2c(C3CCCCC3)c3n(c2c1)CC(NC(=O)N1C[C@@H](C)O[C@@H](C)C1)Cc1ccccc1-3 (some centres unmarked) | > 1000 | > 120 |  |
| CC(=O)N(C)C1CCN(C(=O)C2=Cc3ccccc3-c3c(C4CCCCC4)c4ccc(C(=O)NS(=O)(=O)N(C)C)cc4n3C2)C1 (centres unmarked) | 10 to 1000 | 70 to 1000 |  |
| CN(C)C(=O)[C@@H]1CCCN1C(=O)C1=Cc2ccccc2-c2c(C3CCCCC3)c3ccc(C(=O)NS(=O)(=O)N(C)C)cc3n2C1 | 10 to 1000 | 70 to 1000 |  |
| CN(C)S(=O)(=O)NC(=O)c1ccc2c(C3CCCCC3)c3n(c2c1)CC(C(=O)N1CCC(Oc2ncccn2)CC1)=Cc1ccccc1-3 | 10 to 1000 | 70 to 1000 |  |
| CN(C)S(=O)(=O)NC(=O)c1ccc2c(C3CCCCC3)c3n(c2c1)CC(C(=O)N1CCOC(c2ccccc2)C1)=Cc1ccccc1-3 (centres unmarked) | 10 to 1000 | 1000 to 10000 |  |
| CN(C(=O)C1=Cc2ccccc2-c2c(C3CCCCC3)c3ccc(C(=O)NS(=O)(=O)N(C)C)cc3n2C1)C1CCS(=O)(=O)C1 (centres unmarked) | 10 to 1000 | 70 to 1000 |  |
| CN(C)S(=O)(=O)NC(=O)c1ccc2c(C3CCCCC3)c3n(c2c1)CC(C(=O)N1CCS(=O)(=O)CC1)=Cc1ccccc1-3 | 10 to 1000 | 70 to 1000 |  |
| COC(=O)c1ccc2c(C3CCCCC3)c3n(c2c1)CC(C(=O)N(C)NC(C)=O)=Cc1ccccc1-3 | > 1000 | 1000 to 10000 |  |
| CC(=O)NN(C)C(=O)C1=Cc2ccccc2-c2c(C3CCCCC3)c3ccc(C(=O)NS(=O)(=O)N(C)C)cc3n2C1 | 10 to 1000 | 70 to 1000 |  |
| O=C(O)c1ccc2c(C3CCCCC3)c3n(c2c1)C[C@@H](NC(=O)N1CCOCC1)Cc1ccccc1-3 | 10 to 1000 | 70 to 1000 |  |
| O=C(O)c1ccc2c(C3CCCCC3)c3n(c2c1)C[C@H](NC(=O)N1CCOCC1)Cc1ccccc1-3 | 10 to 1000 | 70 to 1000 |  |
| COc1ccc2c(c1)C=C(C(=O)N(C)CC(=O)N(C)C)Cn1c-2c(C2CCCCC2)c2ccc(C(=O)O)cc21 | 10 to 1000 | 70 to 1000 |  |
| C[C@@H]1CN(C(=O)NC2Cc3ccccc3-c3c(C4CCCCC4)c4ccc(C(=O)NS(=O)(=O)N(C)C)cc4n3C2)C[C@H](C)O1 (some centres unmarked) | 10 to 1000 | 70 to 1000 |  |
| O=C(NC1Cc2ccccc2-c2c(C3CCCCC3)c3ccc(C(=O)O)cc3n2C1)OCc1ccccc1 (centres unmarked) | 10 to 1000 | 70 to 1000 |  |
| COC(=O)c1ccc2c(C3CCCCC3)c3n(c2c1)CC(C(=O)N1CCC(N2CCOCC2)CC1)=Cc1ccccc1-3 | > 1000 | 1000 to 10000 |  |
| O=C(O)c1ccc2c(C3CCCCC3)c3n(c2c1)CC(C(=O)N1CCC(N2CCOCC2)CC1)=Cc1ccccc1-3 | 10 to 1000 | 70 to 1000 |  |
| CN(C)S(=O)(=O)NC(=O)c1ccc2c(C3CCCCC3)c3n(c2c1)CC(C(=O)N1CCC(N2CCOCC2)CC1)=Cc1ccccc1-3 | 10 to 1000 | 70 to 1000 |  |
